Experiment [1] relates to ITK phosphorylation of its substrate, PLCγ1, at Y783. Nature of the experiment: ITK target modulation assay (PLCγ1 Y783 phosphorylation, anti-CD3 stimulated Jurkat T cells). The format is cell-based. The settings on record: Homo sapiens, Jurkat, anti-CD3 Dynabeads stimulation, read-out: PLC-γ Inh. IC50. Here is the method:
Target modulation was based upon the ability of a compound to inhibit ITK phosphorylation of its substrate, PLCγ1, at Y783. Human Jurkat T cells (ATCC TIB-152) were plated in V-bottom 96 well plates at 400,000 cells/well in 80 μL medium (RPMI1640 with 10% heat inactivated serum and 55 μM 2-mercaptoethanol and supplemented with glutamine/penicillin/streptomycin). Compounds were added as 10 μL of 10× working stock solutions in medium with 1% DMSO (or medium with 1% DMSO for controls) and placed in a 37° C. incubator with gentle shaking for 1 hour. Stimulation was carried out using anti-CD3 Dynabeads (Invitrogen catalog #1151D) to activate the T cell receptor and mimic antigen presenting cells. Beads were washed and resuspended in medium at 1.84×10^8 beads/ml. Beads were added rapidly to all compound containing and stimulation only wells at 10 μL/well (bead:cell=2:1) with gentle mixing of the bead source between each addition. Wells designated ‘unstimulated’ received 10 μL of media only. The plate was immediately sealed with a plate seal and cells pelleted at 400× g for 4 minutes. Media was removed using a multichannel aspirator, 25 μL of cold hypotonic lysis buffer (VWR M334-100 ml) plus 1×HALT Protease Inhibitor Cocktail (ThermoFisher #78437), 1× Phosphatase Inhibitor Cocktail 2 (Sigma Aldrich #P5726), 1× Phosphatase Inhibitor Cocktail 3 (Sigma Aldrich #P0044) and 2 mM PMSF was added per well. Cells were incubated on ice for 30 minutes to swell the cells then lysed by pipetting 20 times using a multichannel pipet. The plates were then resealed and centrifuged for 5 minutes at 400× g to pellet the cellular debris. Two μL of the soluble component of each sample was spotted onto nitrocellulose and allowed to dry for 30 minutes. Nitrocellulose was wet in 1× Tris Buffer Saline (20 mM Tris pH7.5, 150 mM NaCl) then blocked in LiCOR Odyssey Blocking Buffer (TBS) (LiCOR #927-50000) for 1 hour at room temperature with rocking. Following blocking, nitrocellulose was incubated in LiCOR Odyssey Blocking Buffer (TBS) plus 0.2% Tween20 plus anti-phospho-PLCγ1 (Y783) antibody (CST #2821S) at 1:1000 and anti-PLCγ1 (Abcam #41433) at 1:5000 with gentle rocking overnight at 4° C. Nitrocellulose was then washed four times for 5 minutes each with TBS plus 0.1% Tween20 (TBST) then incubated in LiCOR Odyssey Blocking Buffer (TBS) plus 0.2% Tween20 plus secondary antibodies IRDye 800CW (LiCOR 926-32211) and IRDye 680RD (LiCOR 926-68070) both at 1:15,000 with gentle rocking at room temperature in the dark for 1 hour. Nitrocellulose was then washed four times for 5 minutes each with TBST at room temperature in the dark. A final rinse with TBS was done prior to imaging and quantifying using the LiCOR Odyssey Imager and software respectively.

Experiment [2] relates to JAK1/3 phosphorylation of its substrate, STAT5, at Y694. As to the kind of experiment: JAK1/3 target modulation assay (IL-2 stimulated STAT5 Y694 phosphorylation in PBMC). It is filed as cell-based. To be noted: Homo sapiens, PBMC, Primary human peripheral blood mononuclear cells, IL-2 25 ng/mL; read-out: IL2-STAT5 Inh. IC50. Here is the method: Target modulation was based upon the ability of a compound to inhibit JAK1/3 phosphorylation of its substrate, STAT5, at Y694. Primary human peripheral blood mononuclear cells were plated in V-bottom 96 well plates at 200,000 cells/well in 120 μL medium (RPMI-1640 with 10% fetal bovine serum, 10 mM HEPES buffer, 12.2 mM 2-mercaptoethanol, and supplemented with glutamine/penicillin/streptomycin). Compounds were added as 15 μL of 10× working stock solutions in medium with 1% DMSO (or medium with 1% DMSO for controls) and placed in a 37° C. incubator with gentle shaking for 1 hour. Stimulation was carried out using recombinant human IL-2 (R&D Systems #202-IL-050) to activate JAK1/3. IL-2 stock solution was diluted in media to 250 ng/mL and was added rapidly to all compound containing and stimulation only wells at 15 μL/well (final concentration=25 ng/mL). Wells designated ‘unstimulated’ received 15 μL of media only. The plate was placed back in a 37° C. incubator with gentle shaking for 5 minutes. After stimulation, the plates were immediately sealed with a plate seal, and cells pelleted at 400× g for 5 minutes. Media was removed using a multichannel aspirator, and 75 μL of cold Tris lysis buffer (MSD #R60TX-3) plus 1× Protease Inhibitor Solution (MSD #R70AA-1), 1× Phosphatase Inhibitor I (MSD #R70AA-1), and 1× Phosphatase Inhibitor II (MSD #R70AA-1) was added per well. Cells were incubated at 4° C. with gentle shaking for at least 30 minutes to allow for complete lysis. The plates were removed from 4° C., and 25 μL of lysate from each well was added to the corresponding well on the MSD plate. Samples were analyzed by either an MSD multiplex kit for Phospho-STAT5a,b/Total-STAT5a,b (MSD #K15163D) or an MSD single-plex kit for Phospho-STAT5a,b (MSD #K150IGD). The protocols for the respective kits were followed, and the plates were read on the MSD SECTOR S 600.

The target of experiment [3] is JAK3 (Homo sapiens (Human), UniProt P52333). As to the kind of experiment: JAK3 enzyme activity assay (Caliper mobility shift). The format is biochemical. To be noted: ATP at Km level; read-out: JAK3 Inh. IC50. An excerpt: The ability of candidate compounds to interact with JAK3 is quantitated by a mobility shift assay using an LC3000 instrument developed by Caliper Life Sciences. This assay is based on mobility shift electrophoresis, in which fluorescently labelled product and fluorescently labelled substrate peaks are separated and detected independently. JAK3 product/substrate separation is obtained using the following instrument settings: Pressure=−1.4 psi, Downstream voltage=−2550V and Upstream voltage=−800V. The inhibitory potency of candidate compounds of JAK3 is measured in 20 mM HEPES pH 7.5, 10 mM MgCl2, 0.01% BSA, 0.0005% Tween-20, and 2% DMSO in the presence of 2.5 nM JAK3 (Life Technologies Catalog #PV3855), […] (Anaspec Catalog #AS-64106) and […] (Km level) using a 384-well plate format. Background signal is defined in the absence of enzyme and uninhibited signal is defined in the presence of vehicle (2% DMSO) alone. Compounds were evaluated in an 11 point dose-response ranging from […] to 0.34 nM. IC50 values of compounds are determined using a 4 parameter logistical fit of emission ratio as a function of the concentration of compound.

For experiment [4], the target named is ITK (Homo sapiens (Human), UniProt Q08881). As to the kind of experiment: ITK inhibitor binding potency (LanthaScreen competitive binding assay). To be noted: read-out: ITK Inh. IC50. The source says:
The ability of candidate compounds to interact with ITK is quantitated by a competitive binding assay using the LanthaScreen technology developed by Life Technologies. This assay is based on the binding of a proprietary, Alexa Fluor® 647-labeled, ATP-competitive kinase inhibitor (kinase tracer-236) to the ITK expression construct in the presence of a Europium-conjugated antibody, resulting in a FRET (fluorescence resonance energy transfer) signal. Displacement of the kinase tracer by compound results in a lower emission ratio upon excitation of the Europium chelate. Candidate compounds are designed as potential irreversible inhibitors of ITK, capable of ligating to an active site cysteine residue resulting in time dependent covalent binding. The time dependent nature of irreversible inhibition is investigated by performing the binding assay with and without a pre-incubation of compound and ITK. […] The inhibitory potency of candidate compounds is measured in 20 mM HEPES pH 7.5, 10 mM MgCl2, 0.01% BSA, 0.0005% Tween-20, and 2% DMSO in the presence of 10 nM ITK, 2 nM Eu-anti-GST antibody, and 50 nM kinase tracer-236 using a 384-well plate format. Background signal is defined in the absence of ITK and uninhibited signal is defined in the presence of vehicle (2% DMSO) alone. Compounds were evaluated in an 11 point dose-response ranging from 20 uM to 0.34 nM. The binding assays are performed under two preincubation conditions to evaluate time dependence of inhibition. For the pre-incubation assay, ITK and Eu-anti-GST antibody are pre-incubated with compound or vehicle for two hours prior to the addition of kinase tracer. The non-preincubated assay is run under conditions where ITK and Eu-anti-GST antibody are added to a mixture of compound and kinase tracer. IC50 values of compounds are determined using a 4 parameter logistical fit of emission ratio as a function of the concentration of compound.

The structures appear in SMILES notation.

What is called IC50 is the concentration at which inhibition is half-maximal.

Sequence of ITK (Q08881 whole entry): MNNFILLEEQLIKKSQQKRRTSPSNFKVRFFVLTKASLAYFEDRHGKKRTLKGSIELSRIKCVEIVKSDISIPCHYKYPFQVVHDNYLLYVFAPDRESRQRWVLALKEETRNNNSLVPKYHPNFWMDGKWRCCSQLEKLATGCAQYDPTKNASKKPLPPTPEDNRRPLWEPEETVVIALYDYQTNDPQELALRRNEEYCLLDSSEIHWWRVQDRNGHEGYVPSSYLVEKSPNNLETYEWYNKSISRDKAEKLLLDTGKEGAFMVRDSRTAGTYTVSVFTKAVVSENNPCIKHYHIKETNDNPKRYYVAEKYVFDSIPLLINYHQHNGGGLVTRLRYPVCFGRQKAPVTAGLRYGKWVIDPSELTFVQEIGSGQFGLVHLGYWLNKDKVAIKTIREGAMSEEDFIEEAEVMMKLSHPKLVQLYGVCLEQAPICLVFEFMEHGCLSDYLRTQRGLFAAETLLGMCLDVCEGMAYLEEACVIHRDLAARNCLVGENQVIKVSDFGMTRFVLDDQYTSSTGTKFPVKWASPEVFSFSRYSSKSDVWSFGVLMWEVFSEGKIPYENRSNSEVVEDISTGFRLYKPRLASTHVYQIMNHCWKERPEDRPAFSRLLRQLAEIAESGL
Sequence of JAK3 (P52333 781-1124): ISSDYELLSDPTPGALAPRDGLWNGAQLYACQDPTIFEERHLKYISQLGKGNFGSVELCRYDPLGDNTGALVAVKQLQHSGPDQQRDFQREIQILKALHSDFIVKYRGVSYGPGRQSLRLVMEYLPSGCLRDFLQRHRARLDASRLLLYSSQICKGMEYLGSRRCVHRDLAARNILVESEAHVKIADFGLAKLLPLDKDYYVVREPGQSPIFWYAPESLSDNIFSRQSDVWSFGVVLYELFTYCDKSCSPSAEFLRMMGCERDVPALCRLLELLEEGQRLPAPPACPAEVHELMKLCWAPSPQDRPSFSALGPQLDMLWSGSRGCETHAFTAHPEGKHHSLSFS

For `C=CC(=O)N1C[C@H](Nc2ncnc3[nH]cc(C(=O)C4CC4)c23)CC[C@@H]1C` [Example 32, 1-((2S,5R)-5-((5-(cyclopropanecarbonyl)-7H-pyrrolo[2,3-d]pyrimidin-4-yl)amino)-2-methylpiperidin-1-yl)prop-2-en-1-one], the IC50 is 100 to 1000 nM in experiment [1], 100 to 1000 nM in experiment [2], at most 10 nM in experiment [3] and at most 10 nM in experiment [4].
`C=CC(=O)N1C[C@H](Nc2ncnc3[nH]cc(CC4CCC(CC)C4)c23)CC[C@@H]1C` (mixture of isomers) [Example 36, 1-((2S,5R)-5-((5-((3-ethylcyclopentyl)methyl)-7H-pyrrolo[2,3-d]pyrimidin-4-yl)amino)-2-methylpiperidin-1-yl)prop-2-en-1-one]: the IC50 was 100 to 1000 nM in experiment [1], 100 to 1000 nM in experiment [2], at most 10 nM in experiment [3] and at most 10 nM in experiment [4].
As for `C=CC(=O)N1C[C@H](Nc2ncnc3[nH]cc(CC4CC4)c23)CC[C@@H]1CC` (single isomer, unassigned) [Example 40], the 50% inhibitory concentration (IC50) in experiment [1] is above 1000 nM; in experiment [2], above 1000 nM; in experiment [3] it was above 100 nM; in experiment [4] it was above 100 nM.
Turning to `C=CC(=O)N1CCC[C@@H](Nc2ncnc3[nH]cc(C4CC4(F)F)c23)C1` (stereo partly drawn) [Example 27, 1-((3R)-3-((5-(2,2-difluorocyclopropyl)-7H-pyrrolo[2,3-d]pyrimidin-4-yl)amino)piperidin-1-yl)prop-2-en-1-one], the 50% inhibitory concentration (IC50) is at most 100 nM in experiment [1], 100 to 1000 nM in experiment [2], at most 10 nM in experiment [3] and at most 10 nM in experiment [4].
On to `C=CC(=O)N1CCC[C@@H](Nc2ncnc3[nH]cc(C4(C)CC4)c23)C1` [Example 23, (R)-1-(3-((5-(1-methylcyclopropyl)-7H-pyrrolo[2,3-d]pyrimidin-4-yl)amino)piperidin-1-yl)prop-2-en-1-one], for which the IC50 is 100 to 1000 nM in experiment [1], 100 to 1000 nM in experiment [2], at most 10 nM in experiment [3] and at most 10 nM in experiment [4].
`C=CC(=O)N1C[C@H](Nc2ncnc3[nH]cc(C4(C)CC4(F)F)c23)CC[C@@H]1C` (stereo partly drawn) [Example 50, 1-((2S,5R)-5-((5-(2,2-difluoro-1-methylcyclopropyl)-7H-pyrrolo[2,3-d]pyrimidin-4-yl)amino)-2-methylpiperidin-1-yl)prop-2-en-1-one]: the IC50 in experiment [1] was at most 100 nM; in experiment [2], 100 to 1000 nM; in experiment [3], at most 10 nM; in experiment [4], at most 10 nM.
As to `C[C@H]1CC[C@@H](Nc2ncnc3[nH]cc([C@H]4CC4(F)F)c23)CN1C(=O)/C=C/CN(C)C` (single isomer, unassigned) [Example 60], the half-maximal inhibitory concentration (IC50) in experiment [1] is at most 100 nM; in experiment [2], 100 to 1000 nM; in experiment [3] it was at most 10 nM; in experiment [4], at most 10 nM.
For the molecule `C=CC(=O)N1CCC[C@@H](Nc2ncnc3[nH]cc(CC4CCC4)c23)C1` [Example 20, (R)-1-(3-((5-(cyclobutylmethyl)-7H-pyrrolo[2,3-d]pyrimidin-4-yl)amino)piperidin-1-yl)prop-2-en-1-one], the half-maximal inhibitory concentration (IC50) in experiment [1] is 100 to 1000 nM; in experiment [2], 100 to 1000 nM; in experiment [3] it was at most 10 nM; in experiment [4], at most 10 nM.
For the molecule `C=CC(=O)N1C[C@H](Nc2ncnc3[nH]cc([C@@H]4C[C@H]4COC)c23)CC[C@@H]1C` (single isomer, unassigned) [Example 45], the IC50 is at most 100 nM in experiment [1], at most 100 nM in experiment [2], at most 10 nM in experiment [3] and at most 10 nM in experiment [4].
For the molecule `C=CC(=O)N1C[C@H](Nc2ncnc3[nH]cc(CC4CC4)c23)CC[C@@H]1C` [Example 24, 1-((2S,5R)-5-((5-(cyclopropylmethyl)-7H-pyrrolo[2,3-d]pyrimidin-4-yl)amino)-2-methylpiperidin-1-yl)prop-2-en-1-one], the IC50 was at most 100 nM in experiment [1], 100 to 1000 nM in experiment [2], at most 10 nM in experiment [3] and at most 10 nM in experiment [4].

For the origin of these results see patent US12297203B2, “Pyrrolopyrimidine ITK inhibitors” (ACLARIS THERAPEUTICS, INC., priority 2018, dated 2025).
